The values that follow come from US8524705B2, “2-oxo-2-(2-phenyl-5,6,7,8-tetrahydro-indolizin-3-yl)-acetamide derivatives and related compounds as antifungal agents” (F2G Limited British Body Corporate, priority 2007, dated 2013).

In brackets after ≈: the same amount, converted by molar mass.

Common to all, as to format: cell-based
What all share (settings): banded into grades

Test [1] concerns Aspergillus flavus. Nature of the test: Measurement of Minimum Inhibitory Concentrations (MICs), A. flavus. The gist of the method:
(§1)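 Broth microdilution in YAG medium with spores at 1–2×10^4 cfu/mL, drug range 50–0.05 mg/L (retested at 0.5–0.0005 mg/L where needed), 24 h at 35 °C. OD485 read; MIC is lowest concentration giving >70% growth inhibition versus drug-free control, in mg/L. Also assessed in RPMI with 2% glucose, 0.135M MOPS.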

Test [2] has as its system Aspergillus fumigatus AF293. In words: Measurement of Minimum Inhibitory Concentrations (MICs), A. fumigatus. The gist of the method:
as §1

For test [3], the system named is Aspergillus fumigatus AF210. Nature of the test: Measurement of Minimum Inhibitory Concentrations (MICs), A. fumigatus 210. The gist of the method:
as §1

Test [4] has as its system Aspergillus niger. Nature of the test: Measurement of Minimum Inhibitory Concentrations (MICs), A. niger. The gist of the method: as §1
The subject of test [5] is Aspergillus terreus AT4. In words: Measurement of Minimum Inhibitory Concentrations (MICs), A. terreus. In outline: as §1
In test [6] the test system is Aspergillus terreus AT49. In words: Measurement of Minimum Inhibitory Concentrations (MICs), A. terreus 49. In outline:
as §1

Setting [7] is: RPMI medium containing 2% glucose, 0.135M MOPS buffer.
[8] abbreviates: YAG medium, 24 hrs at 35° C., >70% growth inhibition.

One may read the MIC as the lowest concentration that inhibits growth of the organism. Lower therefore signals greater potency. As to `Cc1cc(C)nc(N2CCN(c3ccc(NC(=O)C(=O)c4c(-c5ccccc5)cc5n4CCCC5)cc3C)CC2)c1` [Example 22, N-{4-[4-(4,6-Dimethyl-pyridin-2-yl)-piperazin-1-yl]-3-methyl-phenyl}-2-oxo-2-(2-phenyl-5,6,7,8-tetrahydro-indolizin-3-yl)-acetamide], the minimum inhibitory concentration (MIC) in test [1] (setting [7]), in test [1] (setting [8]), in test [2] (setting [7]), in test [2] (setting [8]), in test [3] (setting [7]) and in test [3] (setting [8]) was < 1 µg/mL in each case. The minimum inhibitory concentration (MIC) in test [4] (setting [7]), in test [4] (setting [8]), in test [5] (setting [7]), in test [5] (setting [8]), in test [6] (setting [7]) and in test [6] (setting [8]) was < 1 µg/mL in each case.

Turning to `Cc1cc(C)nc(N2CCN(c3ccc(NC(=O)C(=O)c4c(-c5ccccc5)cc5n4CCCC5)cc3COCCN(C)C)CC2)c1` [Example 29, N-{3-(2-Dimethylamino-ethoxymethyl)-4-[4-(4,6-dimethyl-pyridin-2-yl)-piperazin-1-yl]-phenyl}-2-oxo-2-(2-phenyl-5,6,7,8-tetrahydro-indolizin-3-yl)-acetamide], the MIC in test [1] (setting [7]) was > 10 µg/mL; in test [1] (setting [8]) it was > 10 µg/mL; in test [2] (setting [7]), > 10 µg/mL; in test [2] (setting [8]), > 10 µg/mL; in test [3] (setting [7]), > 10 µg/mL; in test [3] (setting [8]), 1 to 10 µg/mL (≈ 1.58 to 15.8 µM). For the same compound, the minimum inhibitory concentration (MIC) in test [4] (setting [7]) was 1 to 10 µg/mL (≈ 1.58 to 15.8 µM); in test [4] (setting [8]) it was > 10 µg/mL; in test [5] (setting [7]), > 10 µg/mL; in test [5] (setting [8]) it was 1 to 10 µg/mL (≈ 1.58 to 15.8 µM); in test [6] (setting [7]) it was 1 to 10 µg/mL (≈ 1.58 to 15.8 µM); in test [6] (setting [8]), 1 to 10 µg/mL (≈ 1.58 to 15.8 µM).
